The values below are quoted from earlier work in patent US9370540B2, “K2 composition and the preparation method and use of the same” (SINPHAR PHARMACEUTICAL CO., LTD., priority 2014, dated 2016).

The test system of this data set is A549 cells. The conditions noted are these: from Molecular Carcinogenesis papers.

Take `C=C(CC[C@@H](C(=O)O)[C@H]1[C@H](O)C[C@@]2(C)C3=CC[C@H]4C(C)(C)C(=O)CC[C@]4(C)C3=CC[C@]12C)C(C)C` [polyporenic acid C]: the “IC50, inhibiting the growth of lung cancer cells” value is recorded as “about 15 μg/ml”.
